# Data as given in EP0133934A2, “Pharmacologically active 1,3,4-thiadiazol-(3,2-a)-thieno-(2,3-d)-pyrimidin-5-(H)one derivatives” (NIKEPHARMA S.r.l., priority 1983, dated 1985).
# How the values were obtained:
# carrageenin oedema = assay: Antiinflammatory activity: carrageenin oedema in the rat; type: in vivo; conditions: po, 4 h, os, 100 mg/kg, one hour before carrageenin, read-out: OEDEMA INHIBITION % at the fourth hour
# Experimental: (§1) The activity tests were carried out on male Spra gue-Dawley rats weighing 200+20 g and on male Swiss mice weighing 26+3 g.
# (§2) The test compounds were administered orally by means of gastroesophageal tube, in the form of a suspen sion in a 10 ml/kg mucilage of 5% gum arabic; and intraperitoneally in the form of an aqueous suspen sion added with a few drops of Tween 80, in the con stant volume of 10 ml/kg.
# The compounds under test and the control ones were administered orally one hour before the injection of 0.1 ml of 1% carrageenin in the right paw of the animals.
# The volume of the paw was measured by means of a plethysmograph immediately before the injection and 2, 4 and 6 hours after.
# The results were expressed as percentage inhibi tion of the oedema in the treated animals in comparison with the control animals, at the time of the maximum oedema development (fourth hour after the carrageenin injection).
# gastric ulceration = type: in vivo, rat; conditions: os, 400 mg/kg
# Experimental: To rats fasted for 18 hours, with water ad libitum, were administered the compounds under test at "0" time and after 2 hours. Control rats were treated with established anti-inflammatory agents.
# 6 Hours after the beginning of the test, the animals were killed by ether inhalation.
# Gastric ulceration was assessed on the ground of values ranging from 0 to 4: • 0 = no ulceration; • 1 = slight iperhaemia and/or a few ulcers; • 2 = severe iperhaemia and many punctiform ulcers; • 3 = severe submucosal hemorrage, one large ulcer and many punctiform ulcers; • 4 severe submucosal hemorrage and many large ulcers.
# The ulcerogenic index was measured by the following formula (Lwoff. J.M., J. Pharmacol., 2, 81, 1971): [formula]
# acetic acid peritonitis = assay: Anti-exudative activity: acetic acid peritonitis in the rat; type: in vivo; conditions: for EXUDATE VOLUME ml ± E.S.: controls 2.58 ± 0.18
# Experimental: The test was carried out according to the procedure described by Arrigoni-Martelli (Boll.Chim. Far. 107, 29, 1968). This method is based upon the evaluation of the anti-exudative effect of a drug at the peritoneal level, following a intraperitoneal injection of 10 ml/kg of a 0.5% acetic acid solution.
# The compounds under test were administered oral ly one hour before the inflammatory agent; 30 minutes after the treatment the animals were killed and the fluid from the peritoneal cavity was drawn and measured.
# The test compounds were administered by oral route 1 hour before intraperitoneal injection of acetic acid (10 ml/kg of a 0.5% solution).
# The anti-exudative activity was determined on the basis of the peritoneal exudate of the treated animals, in comparison with the controls.
# [1] = test system: phenylbenzoquinone writhing test; assay: Phenylbenzoquinone writhing test in the mouse (ED50 and duration of effect); type: in vivo; conditions: for % INHI-BITION / N° OF WRITHES IN 10' ml ± E.S.: Table 6, oral, one hour before the test; for N° OF WRITHES IN 10' ml ± E.S.: controls 52.4 ± 1.69; for % INHIBITION / Nº OF WRITHES IN 10' ml ± E.S.: Table 7, oral 1 mg/kg; for Nº OF WRITHES IN 10' ml ± E.S.: controls 53.2 ± 1.26
# Experimental: The analgesic effect was determined by the number of writhes of the abdomen recorded during 10 minutes (from 5 to 15 minutes after the phenylbenzo quinone injection).
# Carrageenin pleuritis = Carrageenin pleuritis in the rat; type: in vivo; conditions: for EXUDATE VOLUME: 30 min. before carrageenin and 6 hours after, exudate at 18 hours, controls 2.76 ± 0.38
# Experimental: Compound HA-34 was tested for the protective activity against the exudative pleuritis reaction induced by carrageenin. HA-34 was administered 30 min. before the injection of carrageenin, and 6 hours after it. The experiment was carried out on male Spra- gue-Dawley rats, anestethized with ethyl urethane, which were subjected, in their right pleural cavity, to injection of 1.5 ml of air and then 0.1 ml of a 1% carrageenin solution, in sterile normal saline, according to the procedure by Van Armann et al. (J. Pharmac. Exp. Ther., 150, 328, 1965). Indometha cin and Piroxicam were employed as the control drugs, under the same conditions. 18 Hours after the intrapleuric carrageenin injec tion, the animals were killed by means of ether inhalation, and the pleuric exudate was collected and measured.
# [2] = test system: Writhing test induced by phenyl-benzoquinone; assay: Phenylbenzoquinone writhing test in the rat; type: in vivo
# Experimental: as §1, §2
# [3] = 30 min. before phenylbenzoquinone
structure (smiles),measurement,setting,value
"CSc1nn2c(=O)c3c4c(sc3nc2s1)CCCC4 [HA 34, 2-Methyl-mercapto-6,7,8,9-tetrahydro-5H[1]-benao-thieno[2,3-d]-1,3,4-thiadiazole[3,2-a]pyrimidin-5[H]-one]",inhibition in vivo at 100 mg/kg,carrageenin oedema,48.8 ± 0.91%
same,ULCERA-TION INDEX,gastric ulceration,0
same,% ANIMALS WITH ULCERS,"gastric ulceration; at 0 time and after 2 hours, killed at 6 hours",0%
same,ULCERA-TION DEGREE,gastric ulceration; scale 0 to 4,0
same,inhibition in vivo at 10 mg/kg,"acetic acid peritonitis; Rattus norvegicus, po, Table 4, os, 10 mg/kg",64%
same,inhibition in vivo at 0.1 mg/kg,"acetic acid peritonitis; Rattus norvegicus, po, Table 8, oral, 0.1 mg/kg",26.7%
same,inhibition in vivo at 0.5 mg/kg,"acetic acid peritonitis; Rattus norvegicus, po, Table 8, oral, 0.5 mg/kg",48%
same,inhibition in vivo at 1 mg/kg,"acetic acid peritonitis; Rattus norvegicus, po, Table 8, oral, 1 mg/kg",53.2%
same,inhibition in vivo at 10 mg/kg,"acetic acid peritonitis; Rattus norvegicus, po, Table 8, oral, 10 mg/kg",78.8%
same,inhibition in vivo at 20 mg/kg,"acetic acid peritonitis; Rattus norvegicus, po, Table 8, oral, 20 mg/kg",94.2%
same,ED50,"acetic acid peritonitis; Rattus norvegicus, oral administration 1 hour before i.p. acetic acid",0.7 mg/kg
same,PERITONEAL EXUDATE ml ± E.S.,"acetic acid peritonitis; Table 4, os, 10 mg/kg, controls 2.91 ± 0.12",0.75 ± 0.11 mL
same,EXUDATE VOLUME ml ± E.S.,"acetic acid peritonitis; Table 8, oral, 0.1 mg/kg, 1 hour before acetic acid",1.89 ± 0.14 mL
same,EXUDATE VOLUME ml ± E.S.,"acetic acid peritonitis; Table 8, oral, 0.5 mg/kg",1.34 ± 0.07 mL
same,EXUDATE VOLUME ml ± E.S.,"acetic acid peritonitis; Table 8, oral, 1 mg/kg",1.20 ± 0.10 mL
same,EXUDATE VOLUME ml ± E.S.,"acetic acid peritonitis; Table 8, oral, 10 mg/kg",0.54 ± 0.08 mL
same,EXUDATE VOLUME ml ± E.S.,"acetic acid peritonitis; Table 8, oral, 20 mg/kg",0.15 ± 0.07 mL
same,ED50,"[1]; Mus musculus, 1 h, oral administration one hour before the test, read-out: ED50",1 mg/kg
same,% INHI-BITION,[1]; 0.1 mg/kg,15.8%
same,N° OF WRITHES IN 10' ml ± E.S.,[1]; 0.1 mg/kg,44.1 ± 1.12
same,% INHI-BITION,[1]; 0.5 mg/kg,31.3%
same,N° OF WRITHES IN 10' ml ± E.S.,[1]; 0.5 mg/kg,36.0 ± 1.33
same,% INHI-BITION,[1]; 1 mg/kg,67.2%
same,N° OF WRITHES IN 10' ml ± E.S.,[1]; 1 mg/kg,17.2 ± 0.87
same,% INHI-BITION,[1]; 2 mg/kg,73.6%
same,N° OF WRITHES IN 10' ml ± E.S.,[1]; 2 mg/kg,13.8 ± 1.12
same,% INHI-BITION,[1]; 5 mg/kg,79.8%
same,N° OF WRITHES IN 10' ml ± E.S.,[1]; 5 mg/kg,10.6 ± 1.06
same,% INHIBITION,[1]; [3],63.9%
same,Nº OF WRITHES IN 10' ml ± E.S.,[1]; [3],19.2 ± 1.18
same,% INHIBITION,[1]; 1 h before phenylbenzoquinone,65.4%
same,Nº OF WRITHES IN 10' ml ± E.S.,[1]; 1 h before phenylbenzoquinone,18.4 ± 1.07
same,% INHIBITION,[1]; 3 h before phenylbenzoquinone,69.9%
same,Nº OF WRITHES IN 10' ml ± E.S.,[1]; 3 h before phenylbenzoquinone,16.0 ± 1.26
same,% INHIBITION,[1]; 4 h before phenylbenzoquinone,65.4%
same,Nº OF WRITHES IN 10' ml ± E.S.,[1]; 4 h before phenylbenzoquinone,18.4 ± 1.74
same,% INHIBITION,[1]; 6 h before phenylbenzoquinone,62.0%
same,Nº OF WRITHES IN 10' ml ± E.S.,[1]; 6 h before phenylbenzoquinone,20.2 ± 1.24
same,% INHIBITION,[1]; 8 h before phenylbenzoquinone,59.4%
same,Nº OF WRITHES IN 10' ml ± E.S.,[1]; 8 h before phenylbenzoquinone,21.6 ± 1.32
same,% INHIBITION,[1]; 24 h before phenylbenzoquinone,58.3%
same,Nº OF WRITHES IN 10' ml ± E.S.,[1]; 24 h before phenylbenzoquinone,22.2 ± 1.46
same,% INHIBITION,[1]; 32 h before phenylbenzoquinone,30.6%
same,Nº OF WRITHES IN 10' ml ± E.S.,[1]; 32 h before phenylbenzoquinone,36.9 ± 2.01
same,duration of action,"[1]; oral 1 mg/kg, result in words",longer lasting than that of Indomethacin and substantially comparable with that of Piroxicam
same,% INHIBITION,Carrageenin pleuritis; 5 mg/kg,34.8%
same,EXUDATE VOLUME,Carrageenin pleuritis; 5 mg/kg,1.80 ± 0.29
same,% INHIBITION,Carrageenin pleuritis; 10 mg/kg,63.0%
same,EXUDATE VOLUME,Carrageenin pleuritis; 10 mg/kg,1.02 ± 0.26
same,inhibiting action on the pleuric exudative reaction,"Carrageenin pleuritis; at the tested doses, result in words",significant inhibiting action
same,inhibition in vivo at 0.5 mg/kg,"[2]; Rattus norvegicus, po, 10 min, os, 0.5 mg/kg, read-out: % INHIBI-TION",24%
same,inhibition in vivo at 5 mg/kg,"[2]; Rattus norvegicus, po, 10 min, os, 5 mg/kg, read-out: % INHIBI-TION",81%
same,analgesic action,"[2]; oral doses of 5 and 0.5 mg/kg, result in words",the more active of the tested compounds
